According to patent US4716109A, “Immunoassay” (Boots-Celltech Diagnostics Limited, priority 1983, dated 1987):
Numbered stars: 1 amine (or outer) side, 2 acyl side, 3 side chain; on linkers, the order of the positions; unused ones are H or OH. Square brackets hold non-standard residues; d marks the D form. Peptide text beside a SMILES is read from it. * marks the point of attachment. X3 = CC(=O)[C@H]1CC[C@H]2[C@@H]3CCC4=CC(=O)CC[C@]4(C)[C@H]3[C@H](OCC(=O)*)C[C@]12C; X1 = CC(=O)C1CCC2C3CCC4=CC(=O)CCC4(C)C3C(OC3OC(C(=O)*)C(O)C(O)C3O)CC12C; Sta = CC(C)C[C@H](N)[C@@H](O)CC(=O)O; X2 = CC(C)CC(N[*:1])C(O)CC(=O)[*:2]

Tests used:
[1] = system: Monoclonal progesterone antibody 11P12; type: binding; settings: radioimmunoassay
Excerpt: Monoclonal progesterone antibody was obtained from Dr. Wang of the Imperial Cancer Research Fund Laboratories, Lincolns Inn, London, England. It had been raised against the immunogen progesterone-11 -hemisuccinyl-bovine serum albumin according to the method of V. E. Fantl, D. Y. Wang and R. E. Knyba, J. Steroid Biochem, 1982, 17, 125-130. The monoclonal antibody of choice for use in the specific assay described below is designated 11P12 in the above mentioned publication.
(§1) A radioimmunoassay employing tritiated progesterone and dextran coated charcoal separation of bound and free progesterone was used to assess the immunoreactivity of progesterone derivatives and progesterone-inhibitor conjugates with the monoclonal and polyclonal antisera, by the method of R. B. Heap, R. J. Holdsworth, J. E. Gadsby, J. A. Laing and D. E. Walters, Brit. Vet. J. 1976, 132, 445-464.

[2] = system: Polyclonal antiserum to progesterone (18/3); type: binding; settings: radioimmunoassay, polyclonal antiserum 18/3
Excerpt: (§2) Polyclonal antisera to progesterone were obtained from the Milk Marketing Board, Veterinary Laboratories, Cleeve House, Lower Wick, Worcester, England and from Guildhay Antisera, Division of Clinical Biochemistry, Department of Biochemistry, University of Surrey, Guildford, Surrey, England. The antiserum from the Milk Marketing Board had been raised against the immunogen progesterone-11α -hemisuccinyl-bovine serum albumin and the Guildhay antiserum raised against progesterone-11α -hemisuccinyl-ovalbumin.
as §1

[3] = molecular target: T1, chymosin milk-clotting activity (Bos taurus, UniProt P00794); assay: Milk-clotting assay in microtiter plates; type: biochemical, calf
T1 construct: purchased Sigma Chemical Co. Ltd., or from recombinant prochymosin (E. coli) supplied by Celltech Ltd; host or cells: calf enzyme, or E. coli for the recombinant prochymosin
Protocol: Milk-clotting assays were carried out in the wells of microtiter plates. In each assay, after a suitable reaction time, the microtiter plate was inverted. Where clotting occurred, the clots remained in the wells of the plate, and where there was no clotting, the contents of the wells were decanted.
The general assay procedure was as follows:
20 μl of assay buffer containing 0.2% bovine serum albumin was pipetted into the wells of a microtiter plate. This was followed by 25 μl of assay buffer alone, or assay buffer containing the desired concentration of progesterone-inhibitor conjugate followed by 25 μl of assay buffer alone, or assay buffer containing the desired concentration of progesterone antibody. Then 30 μl of assay buffer containing the desired concentration of chymosin was added. This was followed by 100 μl of a milk substrate solution. The microtiter plate containing the assay mixture was placed in an incubator at 37° C. for 1 hour. At the end of this time the plate was inverted over a sink and tapped very lightly a few times, and then placed inverted on some tissue paper. The presence of clots was readily observed and either scored on a microtiter plate diagram or alternatively the inverted plate was photocopied against a dark background.
Dilutions of chymosin in assay buffer were prepared at 1/1000, 1/1100, 1/1210, 1/1331, 1/1464, 1/1611, 1/1772, 1/1949. 30 μl of each diluted enzyme solution was used in each microtiter well. A solution of the progesterone-inhibitor designated P4SP2, at a concentration of 40 pmol/ml was prepared; 25 μl (1 pmol) being used in each microtiter well. Dilutions of sheep polyclonal antiserum HPS 53-IIb (supplied by Guildhay Antisera) were prepared at 1/50, 1/100 and 1/200; 25 ul of each dilution being used in each microtiter well.
A 1/50 dilution of antibody to progesterone (HPS53 IIb--Guildhay antisera) was used, together with a fixed concentration of progesterone-inhibitor conjugate P4SP2 (100 pmol/ml). The final concentration of conjugate was 1 pmol/well. Progesterone was dissolved in assay buffer at a concentration of 0.5 nmol/ml, to give a final concentration of 7.5 pmol/well. Incubation mixtures containing 0.571 ml of assay buffer containing 0.2% BSA, 0.714 ml of dilute antibody, 0.429 ml of progesterone in assay buffer and 0.286 ml of inhibitor conjugate were prepared. Control incubates were also prepared in which antibody, progesterone, or both were replaced by equivalent volumes of assay buffer. A similar series of incubation mixtures in which progesterone-inhibitor conjugate was replaced by assay buffer was also prepared. These mixtures were incubated at 4° C. for 2 hours. At the end of the incubation, 70 μl of incubate was transferred to each well in duplicate rows on the microtitre plate. Dilution of a 1 mg/ml solution of chymosin in assay buffer were prepared as follows: 1/1210 1/1331, 1/1464, 1/1611, 1/1772, 1/1949, 1/2144, 1/2358, 1/2594, 1/2835, 1/3138, 1/3452. 30 μl of each dilution was added to each well in a column of the microtitre plates. These dilutions gave a final concentration of 0.71, 0.64, 0.58, 0.53, 0.48, 0.44, 0.40, 0.36, 0.33, 0.30, 0.27 and 0.25 pmol/well. 100 ul of milk substrate was added to each well and the plates were incubated for one hour at 37° C. before checking for clotting. In the absence of progesterone, antibody and progesterone-inhibitor conjugate, the limiting concentration of chymosin necessary for clotting is 0.36 pmol/well. […]

[4] = system: Polyclonal antiserum to progesterone HPS 53IIb; assay: Radioimmunoassay for immunoreactivity with polyclonal antiserum HPS 53IIb; type: binding, sheep
Excerpt: as §2, §1
Dilutions of chymosin in assay buffer were prepared at 1/1000, 1/1100, 1/1210, 1/1331, 1/1464, 1/1611, 1/1772, 1/1949. 30 μl of each diluted enzyme solution was used in each microtiter well. A solution of the progesterone-inhibitor designated P4SP2, at a concentration of 40 pmol/ml was prepared; 25 μl (1 pmol) being used in each microtiter well. […]

[5] = system: Polyclonal antiserum to progesterone HPS 645IIc; assay: Radioimmunoassay for immunoreactivity with polyclonal antiserum HPS 645IIc; type: binding
Excerpt: as §2, §1

[6] = molecular target: Endothia Parasitica Protease (Cryphonectria parasitica, UniProt P11838); assay: Enzyme inhibition with chromogenic peptide substrate; type: biochemical
Excerpt: Enzyme inhibition data was obtained using synthetic peptide substrates containing a chromophoric nitrophenylalanine residue in the position of the scissile bond so that hydroysis can be followed spectrophotometrically. Hydrolysis was followed at 300 nm and the substrate can be used at any pH value (usually between 2-6) at which the enzyme is active. Kinetic parameters for the hydrolysis of a chromogenic peptide substrate by different types of mammalian aspartic proteinases have been reported J. Kay, M. J. Valler and B. M. Dunn, Naturally-occurring inhibitors of Aspartic Proteinases in Proteinase Inhibitors; N. Katunuma, H. Umezawa and H. Holzer Eds., 1983 Springer-Verlag, Berlin (in press).

Chymosin = molecular target: T2, Chymosin (Bos taurus, UniProt P00794); assay: as above; type: biochemical, calf; settings: pH 6.0
T2 construct: purchased Sigma Chemical Co. Ltd., or from recombinant prochymosin (E. coli) supplied by Celltech Ltd; host or cells: calf enzyme, or E. coli for the recombinant prochymosin
Excerpt: Enzyme inhibition data was obtained using synthetic peptide substrates containing a chromophoric nitrophenylalanine residue in the position of the scissile bond so that hydroysis can be followed spectrophotometrically. Hydrolysis was followed at 300 nm and the substrate can be used at any pH value (usually between 2-6) at which the enzyme is active.

[7] = Endothia Parasitica Protease, pH 3.1

Chain of Endothia Parasitica Protease (P11838 90-419): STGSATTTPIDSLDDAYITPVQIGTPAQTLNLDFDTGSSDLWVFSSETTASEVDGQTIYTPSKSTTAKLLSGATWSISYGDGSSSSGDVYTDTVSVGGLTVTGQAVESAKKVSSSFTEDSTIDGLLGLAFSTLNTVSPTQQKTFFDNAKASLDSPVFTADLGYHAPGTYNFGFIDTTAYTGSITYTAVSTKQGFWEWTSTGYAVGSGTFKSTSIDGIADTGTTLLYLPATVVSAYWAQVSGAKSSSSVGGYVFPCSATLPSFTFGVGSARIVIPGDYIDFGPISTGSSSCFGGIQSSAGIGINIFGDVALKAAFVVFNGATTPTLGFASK
T1 sequence (P00794 59-381): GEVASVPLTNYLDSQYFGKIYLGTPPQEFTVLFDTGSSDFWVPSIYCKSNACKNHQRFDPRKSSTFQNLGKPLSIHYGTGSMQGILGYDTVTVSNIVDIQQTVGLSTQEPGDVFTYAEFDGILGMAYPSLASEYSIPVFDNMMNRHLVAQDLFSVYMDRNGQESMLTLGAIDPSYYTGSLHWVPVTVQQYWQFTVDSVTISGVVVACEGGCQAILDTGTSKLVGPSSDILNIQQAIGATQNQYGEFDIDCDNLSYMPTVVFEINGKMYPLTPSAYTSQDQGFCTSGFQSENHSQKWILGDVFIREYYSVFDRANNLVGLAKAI
T2 sequence (P00794 59-381): as above

Compound | Immunoreactivity Monoclonal 11P12 [1] [%] | Immunoreactivity Polyclonal (18/3) [2] [%] | Ki ([6]; Endothia, pH 6.0) [nM] | Ki (Chymosin) [nM] | other results
CC(=O)[C@H]1CC[C@H]2[C@@H]3CCC4=CC(=O)CC[C@]4(C)[C@H]3[C@H](OC3O[C@H](C(=O)O)[C@@H](O)[C@H](O)[C@H]3O)C[C@]12C (stereo partly drawn) [I, Progesterone11α-glucuronide, reference compound] | 151 | 92.1 |  |  | 
CC(=O)[C@H]1CC[C@H]2[C@@H]3CCC4=CC(=O)CC[C@]4(C)[C@H]3[C@H](OCC(=O)O)C[C@]12C [II, Progesterone11α-carboxymethylether, reference compound] | 77.4 |  |  |  | 
CC(=O)[C@H]1CC[C@H]2[C@@H]3CCC4=CC(=O)CC[C@]4(C)[C@H]3CC[C@]12C [Progesterone, reference compound] |  |  |  |  | limiting concentration of chymosin necessary for clotting ([3]; progesterone alone, 7.5 pmol/well, no conjugate, compared with control 0.36 pmol/well): remains the same
CC[C@H](C)[C@H](NC(=O)[C@H](C)NC(=O)C[C@H](O)[C@H](CC(C)C)NC(=O)[C@H](CO)NC(=O)[C@H](CC(C)C)NC(=O)CO[C@@H]1C[C@]2(C)[C@@H](C(C)=O)CC[C@H]2[C@@H]2CCC3=CC(=O)CC[C@]3(C)[C@H]21)C(=O)N1CCC[C@H]1C(=O)N1CCC[C@H]1C(=O)N[C@@H](CCCCN)C(=O)N[C@@H](CCCCN)C(=O)O [VII] (X3-LS[Sta]AIPPKK-OH) | 17.1 | 33.6 | 26 | 6.7 | Immunoreactivity Polyclonal (HPS 53IIb) [4]: 42.1%; Immunoreactivity Polyclonal (HPS 645IIc) [5]: 17.4%
CCC(C)C(NC(=O)C(C)NC(=O)CC(O)C(CC(C)C)NC(=O)C(CO)NC(=O)C(CC(C)C)NC(=O)C1OC(OC2CC3(C)C(C(C)=O)CCC3C3CCC4=CC(=O)CCC4(C)C23)C(O)C(O)C1O)C(=O)N1CCCC1C(=O)N1CCCC1C(=O)NC(CCCCN)C(=O)NC(CCCCN)C(=O)O (stereo not shown) [VI] (X1-LS[X2]AIPPKK-OH; configuration not given here) | 3.8 | 16.4 | 470 | 20 | Immunoreactivity Polyclonal (HPS 53IIb) [4]: 34%; milk clotting with conjugate in the presence of antibody ([3]; 1 pmol/well conjugate plus 1/50 antibody HPS53 IIb (FIG. 3)): clotting is restored; milk clotting with conjugate in the presence of antibody and free progesterone ([3]; 1 pmol/well conjugate, 1/50 antibody HPS53 IIb, progesterone 7.5 pmol/well (FIG. 3)): antibody restoration of clotting activity was impaired; modulation by antibody of the conjugate's inhibition of chymosin milk clotting activity ([3]; 1 pmol/well conjugate, antiserum HPS 53-IIb at 1/50, 1/100, 1/200, chymosin dilutions 1/1000-1/1949 (FIG. 1)): can be modulated by the addition of antibody; chymosin required to give a visible clot (limiting concentration of chymosin necessary for clotting) ([3]; 1 pmol/well of the inhibitor conjugate, no antibody, no progesterone, 1 h 37° C., control without additions 0.36 pmol/well): 0.44 pmol/well
CCC(C)C(NC(=O)C(C)NC(=O)CC(O)C(CC(C)C)NC(=O)C(CO)NC(=O)C(CC(C)C)NC(=O)C(Cc1c[nH]cn1)NC(=O)C1OC(OC2CC3(C)C(C(C)=O)CCC3C3CCC4=CC(=O)CCC4(C)C23)C(O)C(O)C1O)C(=O)N1CCCC1C(=O)N1CCCC1C(=O)NC(CCCCN)C(=O)NC(CCCCN)C(=O)O (stereo not shown) [V] (X1-HLS[X2]AIPPKK-OH; configuration not given here) | 31.8 | 9.5 | 40 | 52 | 
Achisleuserstualaileproprolyslys [IV] |  |  |  |  | Ki [6, 7]: 6 nM
Hisleuserphestatalaileproprolyslys [III] |  |  |  |  | Ki [6, 7]: 10 nM
